In one data set the test system is U-87 MG tumor xenografts. In words: µPET/CT imaging.
A short description of data set [1]: Plasma stability, HPLC radiochemical purity. As to conditions: human.
Procedure: (§1) 100 μL of the labeled peptide was mixed with 400 μL of human plasma (Sigma Aldrich, St. Louis, MO, USA). This mixture was incubated at 37 °C and the samples for HPLC analysis to determine the radiochemical purity were taken at selected time points (30, 60, and 120 min). The individual samples were adjusted before the injection on HPLC—every sample was mixed with acetonitrile (Roth, Karlsruhe, Germany) and placed on the shaker (450 rpm) for 60 s and then centrifuged (20,000 RCF, 3 min), followed by removing the supernatant. Finally, the supernatant was analyzed using HPLC.
Data set [2] in a line: Stability in the presence of competing metal (FeCl3), HPLC radiochemical purity. As to conditions: 37 °C.
Procedure: 50 μL of ^68Ga-labeled peptides were mixed with 150 μL of 0.1 mM FeCl3 (Sigma Aldrich, St. Louis, MO, USA). The mixture was incubated at 37 °C and the samples for HPLC analysis to determine the radiochemical purity were taken at selected time points (30, 60 and 120 min) and directly injected on HPLC.
Data set [3] in a line: Plasma protein binding, size-exclusion spin column. As to conditions: human plasma, 37 °C.
Procedure: (§2) 10 µL of the labeled peptide was mixed with 190 μL of human plasma (Sigma Aldrich, St. Louis, MO, USA), and incubated at 37 °C. Twenty-five µL of sample were collected at 30, 60, and 120 min time intervals for the determination of protein binding. The samples were separated by size-exclusion chromatography (illustra MicroSpin G-50 Column, GE Healthcare, UK) by centrifugation (2000 × g, 1 min). The eluate (protein-bound) and appropriate column (non-protein-bound) were measured on an automatic gamma counter. The percentage of plasma protein binding (PPB) was calculated as the ratio of the activity in the eluate and the activity of the whole sample (column plus the eluate). The blank determination of protein binding, i.e., incubation of the radiotracer in PBS buffer followed by separation of the sample on gel column was performed as the control step.
Data set [4] is described as follows: Partition coefficient (log P), octanol/PBS.
Procedure: Labeled peptide was diluted with 600 μL of phosphate-buffered saline (PBS), and 50 µL of the solution was mixed in the test tube with 450 μL of PBS and 500 μL of octanol. The sample was placed on the shaker (1000 RPM) for 20 min and then centrifuged at 15,000 RPM for 1 min. Subsequently, 50 µL from both octanol and water layer were collected and measured on an automatic gamma counter (PerkinElmer, Waltham, Massachusetts, USA). Partition coefficient was calculated as the decadic logarithm of the ratio of octanol/water activity.
The nature of a further data set: µPET/CT imaging. As to conditions: female, SCID, mouse, tumor and brain (PET volumes of interest), total radioactivity.
Data set [5] in a line: Stability in physiological pH (pH 7), HPLC radiochemical purity. As to conditions: 37 °C.
Procedure: The peptides were labeled as described above. Subsequently, 100 μL of 1.14 M sodium acetate was added to adjust the pH to 7.0. The mixture was incubated at 37 °C and the samples for HPLC analysis to determine the radiochemical purity were taken at selected time points (30, 60, and 120 min) and directly injected on HPLC.
A further data set is described as follows: Ex vivo biodistribution. As to conditions: mouse; for tissue to tissue ratio at 0.5 h / tissue to tissue ratio at 1.5 h: female, SCID, total radioactivity, from ex vivo biodistribution; for tissue to tissue ratio at 1.5 h: 90 min p.i.
The next data set deals with U-87 MG cells. Put plainly: Cell uptake assay with and without excess of cold peptide. The conditions noted are these: for Accumulation in U-87 MG cells: 90 min, 37 °C. It is filed as cell-based, human. The method, then: Human glioblastoma multiforme U-87 MG cells (ATCC, Manassas, VA, USA) were cultured in Dulbecco’s Modified Eagle Medium (Sigma Aldrich, St. Louis, MO, USA) supplemented with 10% fetal bovine serum, 0.1 mM non-essential amino acids and 1.0 mM sodium pyruvate at 37 °C in a 5% carbon dioxide humidified incubator. The cells were subcultured and used for experiments at a confluency of 70–90%.
Cell uptake assay was performed in 24-well plates with U-87 MG cell at high confluency. The assay itself was carried out using a dedicated buffer instead of the regular cell culture media. The buffer consists of 25 mM Tris/HCl, 5.4 mM KCl, 1.8 mM CaCl2, 0.8 mM MgSO4, 5 mM glucose, 140 mM NaCl in H2O [34].
The cells were incubated with ^68Ga-labeled RGD peptides (20 µM) alone and also with excess (2 mM) of cold RGD peptide for 90 min (37 °C) in the buffer described above. The cells were rinsed with PBS, lysed in 0.1 M NaOH and measured for radioactivity in a gamma counter (PerkinElmer, Waltham, Massachusetts, USA). The uptake was calculated as the mean of the percentage of the applied dose ± standard deviation.

Data set [6] in a line: Stability in the presence of competing chelator (DTPA), HPLC radiochemical purity. As to conditions: 37 °C.
Procedure: 50 μL of ^68Ga-labeled peptides were mixed with 150 μL of 6 mM DTPA solution (Sigma Aldrich, St. Louis, MO, USA). The mixture was then incubated at 37 °C and the samples were processed for HPLC analysis to determine the radiochemical purity were taken at selected time points (30, 60, and 120 min) and directly injected on HPLC.
For data set [7], the system named is U-87 MG tumor SCID mouse. The conditions noted are these: in vivo.
Procedure: (§3) SCID female mice (Harlan, Indianapolis, IN, USA) at 6–8 weeks of age were subcutaneously injected into the right flank with 5 × 10^6 U-87 MG cells mixed with Matrigel Matrix (Corning, Corning, NY, USA) at a 1:1 ratio. The tumor growth was continuously monitored by caliperation. When the tumor volume reached 100–300 mm^3 (i.e., 6–8 weeks after inoculation of cells), the mice were used for ex vivo biodistribution studies or µPET/CT imaging. […] The number of animals was reduced as much as possible (n = 3 per group and time point) for all in vivo experiments. The tracer injection and small animal imaging were carried out under 2% isoflurane anesthesia (FORANE, Abbott Laboratories, Abbott Park, IL, USA) to minimize animal suffering and to prevent animal motion.
(§4) For ex vivo biodistribution studies, radiolabeled tracers were diluted with saline. The prepared solutions were applied retro-orbitally (r.o.) to the mice [35] at a dose of 1–2 MBq per mouse corresponding to 0.2–0.4 µg of the peptide. The mice were sacrificed by cervical dislocation 30 min and 90 min post-injection and organs of interest (blood, spleen, pancreas, stomach, intestine, kidneys, liver, heart, lungs, muscle, bone, and tumor) were collected. The samples were weighed and the radioactivity was measured by an automatic gamma counter. The accumulation of radiotracer in studied organs was expressed as a percentage of injected dose per gram of organ.
Data set [8] is described as follows: in vivo. The conditions noted are these: female, SCID, mouse, total radioactivity.
Procedure: as §3, §4
For data set [9] the following is noted: human, plasma.
Procedure: as §2
For data set [10] the following is noted: mouse, in vivo.
Procedure: as §3, §4
The nature of data set [11]: in vivo. The conditions noted are these: female, SCID, mouse, total radioactivity. The source holds these as a separate data set.
Procedure: (§5) SCID female mice (Harlan, Indianapolis, IN, USA) at 6–8 weeks of age were subcutaneously injected into the right flank with 5 × 10^6 U-87 MG cells mixed with Matrigel Matrix (Corning, Corning, NY, USA) at a 1:1 ratio. The tumor growth was continuously monitored by caliperation. When the tumor volume reached 100–300 mm^3 (i.e., 6–8 weeks after inoculation of cells), the mice were used for ex vivo biodistribution studies or µPET/CT imaging. The experimental animals were housed in a specific-pathogen-free animal facility. […] The number of animals was reduced as much as possible (n = 3 per group and time point) for all in vivo experiments. The tracer injection and small animal imaging were carried out under 2% isoflurane anesthesia (FORANE, Abbott Laboratories, Abbott Park, IL, USA) to minimize animal suffering and to prevent animal motion.
(§6) Experimental animals were imaged using microPET/SPECT/CT system Albira (Bruker, Billerica, Massachusetts, USA). Mice were r.o. injected with the radiolabeled tracer at a dose of 5–10 MBq (corresponding to 1–2 μg of peptide for animals injected with ^68Ga-peptides) per animal. Anesthetized animals were placed in a prone position in the Albira system before the start of imaging. Static PET/CT images were acquired over 30 min interval starting 30 and 90 minutes after injection. A 10-min PET scan (axial FOV 148 mm) was performed, followed by a double CT scan (axial FOV 65 mm, 45 kVp, 400 μA, at 400 projections). Scans were reconstructed with the Albira software (Bruker Biospin Corporation, Woodbridge, CT, USA) using the maximum likelihood expectation maximization (MLEM) and filtered back-projection (FBP) algorithms. The PMOD software (PMOD Technologies, Zurich, Switzerland) was used for the image analysis and tracer uptake quantification. Three-dimensional volume rendered images were created in VolView software (Kitware, Clifton Park, NY, USA). The data obtained by PET scan were quantified in PMOD via manually selected volumes of interest (VOIs) and expressed as standardized uptake values (SUV). Using SUVs for the tumor and brain regions the tumor to brain ratios were calculated.
A short description of another data set: in vitro. As to conditions: human, plasma.
In data set [12] the test system is U-87 MG tumor SCID mouse. In words: Ex vivo biodistribution. The conditions noted are these: 90 min p.i., from ex vivo biodistribution.
Procedure: as §3, §4
Where [13] appears, read: tumor and blood, Tumor to blood ratio, 30 min p.i.
The mark [14] stands for this setting: tumor and blood, Tumor to blood ratio.
Where [15] appears, read: tumor and kidney, Tumor to kidney ratio, 30 min p.i.
Where [16] appears, read: tumor and kidney, Tumor to kidney ratio.
Where [17] appears, read: tumor and muscle, Tumor to muscle ratio, 30 min p.i.
[18] abbreviates: tumor and muscle, Tumor to muscle ratio.

Entries after “also recorded” stand apart in the source; their conditions may differ. Read-outs that look alike come from different tables or passages of the source.

Procedure for U-87 MG tumor xenografts: as §5, §6
Procedure for in vitro: as §1

Take `OC[C@H]1OC(O)[C@H](F)[C@@H](O)[C@@H]1O` (stereo partly drawn) [^18F-FDG, ^18F-fluorodeoxyglucose, reference compound]: the “PET/CT visualization of the tumor” value in the data set with U-87 MG tumor xenografts (mouse, in vivo) was “allowed clear imaging of the tumor”.
In the case of `Cc1cn([C@H]2C[C@H]([18F])[C@@H](CO)O2)c(=O)[nH]c1=O` [^18F-FLT, ^18F-fluorothymidine, reference compound], the “PET/CT visualization of the tumor” value in the data set with U-87 MG tumor xenografts (30 and 90 min p.i.) is given as “could also be imaged”.
As for `N=C(N)NCCC[C@@H]1NC(=O)[C@H](CCCCNC(=O)CN2CCN(CC(=O)O)CCN(CC(=O)O)CCN(CC(=O)O)CC2)NC(=O)[C@@H](Cc2ccccc2)NC(=O)[C@H](CC(=O)O)NC(=O)CNC1=O` [^68Ga-DOTA-c(RGDfK), DOTA-c(RGDfK), metal not drawn], in data set [1], the share remaining at 0.5 h was found to be 99.23 ± 0.18%. This molecule also came in with an amount remaining at 1 h in data set [1] of 99.14 ± 0.19%. The same molecule registered an amount remaining at 2 h in data set [1] of 98.81 ± 0.33%. The “% Stability in 0.1 M FeCl3” value in data set [2] (30 min) worked out at 97.04 ± 1.24%; in [2] (60 min), 96.76 ± 1.21%; in data set [2] (120 min), 95.83 ± 1.04%. The “Plasma Protein Binding (%)” value in data set [3] (incubation 30 min) worked out at 2.39%; in data set [3] (incubation 60 min) it was 2.65%; in [3] (incubation 120 min), 3.29%. Further, the logP in data set [4] is -3.43 ± 0.11. Also, the tissue to tissue ratio at 1.5 h was found to be 4.7 in “µPET/CT imaging”, 14.7 in the data set “Ex vivo biodistribution” (setting [14]), 1.43 in the data set “Ex vivo biodistribution” (setting [16]) and 13.5 in the data set “Ex vivo biodistribution” (setting [18]). Besides, the “% Stability in pH 7” value is 99.60 ± 0.23% in [5] (30 min), 99.51 ± 0.13% in data set [5] (60 min) and 99.49 ± 0.20% in data set [5] (120 min). Also, the tissue to tissue ratio at 0.5 h came to 1.09 in “Ex vivo biodistribution” (setting [13]), 0.29 in the data set “Ex vivo biodistribution” (setting [15]) and 2.42 in the data set “Ex vivo biodistribution” (setting [17]). The “Uptake in U-87 cells compared to ^68Ga-NODAGA-c(RGDyK)2” value with U-87 MG cells (normal cells) is given as “about 50%”. In addition, the “Accumulation in U-87 MG cells” value in the data set with U-87 MG cells (normal cells, 20 µM) is “lowest”. The “% Stability in 6 mM DTPA” value in data set [6] (30 min) was 99.39 ± 0.43%; in data set [6] (60 min), 99.39 ± 0.54%; in data set [6] (120 min), 99.06 ± 0.57%.
Turning to `CSCC[C@H](NC(=O)[C@H](CC(C)C)NC(=O)CNC(=O)[C@H](Cc1ccccc1)NC(=O)[C@H](Cc1ccccc1)NC(=O)[C@H](CCC(N)=O)NC(=O)[C@H](CCC(N)=O)NC(=O)[C@@H]1CCCN1C(=O)[C@H](CCCCN)NC(=O)[C@@H]1CCCN1C(=O)[C@H](CCCNC(=N)N)NC(=O)CN1CCN(CC(=O)O)CCN(CC(=O)O)CCN(CC(=O)O)CC1)C(N)=O` [^68Ga-DOTA-substance P, DOTA-substance P, metal not drawn], the logP is -3.03 ± 0.33. Further, the “Tumor to blood ratio” value in the data set with U-87 MG tumor SCID mouse [7] amounted to 2.8. The molecule also returned an Accumulation in kidneys with U-87 MG tumor SCID mouse [7] (1.5 h) of 15 % ID/g. In addition, in the data set on U-87 MG tumor xenografts (30 and 90 min p.i., listed as 68Ga-substance P), the “PET/CT visualization of the tumor” value was “did not visualize the tumor; also recorded: did not observe any substantial signal in tumors”. Also, in “in vivo [8]” (Tumor to blood ratio), the tissue to tissue ratio at 0.5 h came out at 0.93 and the tissue to tissue ratio at 1.5 h worked out at 2.84. Also, in “in vivo [8]” (Tumor to kidney ratio), the tissue to tissue ratio at 0.5 h amounted to 0.14 and the tissue to tissue ratio at 1.5 h was determined as 0.04. In the data set “in vivo [8]” (Tumor to muscle ratio), the tissue to tissue ratio at 0.5 h came to 3.1 and the tissue to tissue ratio at 1.5 h was found to be 6.45. In addition, the unbound share (fraction unbound) in [9] was ~0.71. The tissue uptake at 1.5 h in data set [10] (Accumulation in kidneys) fell in the range of 15 to 17 %ID/g. The same molecule gave a tissue uptake at 0.5 h in [10] (Tumor uptake) of 2.14 %ID/g. Moreover, the “Accumulation in U-87 MG cells” value in the data set with U-87 MG cells (blocked with excess (2 mM) of cold peptide) was 0.3 % of the applied dose. The “Uptake in U-87 cells compared to ^68Ga-NODAGA-c(RGDyK)2” value in the data set with U-87 MG cells (normal cells) is “about 50%”. In addition, the “Accumulation in U-87 MG cells” value in the data set with U-87 MG cells (normal cells, 20 µM) is given as 0.3 % of the applied dose. In addition, the tissue to tissue ratio at 1.5 h in “in vivo [11]” was found to be 4.25. In the data set “in vitro”, this molecule displayed a share remaining at 0.5 h of 98.2%, a share remaining at 1 h of 98.2% and an amount remaining at 2 h of 98%.
Molecule `N=C(N)NCCC[C@@H]1NC(=O)[C@H](CCCCNC(=O)CC[C@H](NC(=O)CCC(C(=O)O)N2CCN(CC(=O)O)CCN(CC(=O)O)CC2)C(=O)NCCCC[C@@H]2NC(=O)[C@@H](Cc3ccc(O)cc3)NC(=O)[C@H](CC(=O)O)NC(=O)CNC(=O)[C@H](CCCNC(=N)N)NC2=O)NC(=O)[C@@H](Cc2ccc(O)cc2)NC(=O)[C@H](CC(=O)O)NC(=O)CNC1=O` (stereo partly drawn) [^68Ga-NODAGA-c(RGDyK)2, NODAGA-c(RGDyK)2, metal not drawn] gave a share remaining at 0.5 h in [1] of 99.51 ± 0.17%. Besides, in data set [1], the amount remaining at 1 h amounted to 99.31 ± 0.11%. The same molecule had a fraction remaining at 2 h in data set [1] of 99.02 ± 0.33%. In addition, the “% Stability in 0.1 M FeCl3” value in data set [2] (30 min) worked out at 98.66 ± 0.82%; in data set [2] (60 min), 99.22 ± 0.19%; in data set [2] (120 min), 99.17 ± 0.18%. Further, the “Plasma Protein Binding (%)” value stood at 1.74% in [3] (incubation 30 min), 1.89% in [3] (incubation 60 min) and 3.40% in data set [3] (incubation 120 min). Besides, in data set [4], the log partition coefficient (logP) was -3.34 ± 0.13. In addition, in the data set on U-87 MG tumor xenografts (30 and 90 min p.i.), the “PET/CT visualization of the tumor” value was “highest accumulation of radioactivity; also recorded: best tumor images”. Besides, the tissue to tissue ratio at 1.5 h is 4.14 in “µPET/CT imaging”, 16.4 in “Ex vivo biodistribution” (setting [14]), 0.91 in the data set “Ex vivo biodistribution” (setting [16]) and 10.5 in “Ex vivo biodistribution” (setting [18]). Besides, the “% Stability in pH 7” value came out at 99.83 ± 0.11% in [5] (30 min), 99.74 ± 0.18% in data set [5] (60 min) and 99.62 ± 0.21% in data set [5] (120 min). Also, the tissue to tissue ratio at 0.5 h in the data set “Ex vivo biodistribution” (setting [13]) came to 2.3; in “Ex vivo biodistribution” (setting [15]), 0.61; in the data set “Ex vivo biodistribution” (setting [17]) it was 5.84. In the data set “Ex vivo biodistribution” (tumor, Tumor uptake, 30 min p.i.), this molecule returned a tissue uptake at 0.5 h of 6 %ID/g. Also, the “Accumulation in U-87 MG cells” value in the data set with U-87 MG cells (normal cells, 20 µM) is given as “highest accumulation; also recorded: highest binding”. For the same molecule, the “% Stability in 6 mM DTPA” value in [6] (60 min) came to 99.39 ± 0.54%; in [6] (120 min), 99.06 ± 0.57%.
In data set [1], `N=C(N)NCCC[C@@H]1NC(=O)[C@H](CCCCNC(=O)CCC(C(=O)O)N2CCN(CC(=O)O)CCN(CC(=O)O)CC2)NC(=O)[C@@H](Cc2ccc(O)cc2)NC(=O)[C@H](CC(=O)O)NC(=O)CNC1=O` (stereo partly drawn) [^68Ga-NODAGA-c(RGDyK), NODAGA-c(RGDyK), metal not drawn] returned a fraction remaining at 0.5 h of 99.23 ± 0.18%. Besides, in data set [1], the share remaining at 1 h is 99.14 ± 0.19%. Also, the fraction remaining at 2 h in data set [1] came to 98.81 ± 0.33%. Further, the entries for the “% Stability in 0.1 M FeCl3” value in data set [2] (30 min), in data set [2] (60 min) and in data set [2] (120 min) were 99.24 ± 0.44%, 98.56 ± 0.60% and 98.94 ± 0.42%, respectively. For the same molecule, the “Plasma Protein Binding (%)” value was determined as 2.74% in data set [3] (incubation 30 min), 1.31% in data set [3] (incubation 60 min) and 3.21% in data set [3] (incubation 120 min). Further, the log partition coefficient (logP) in data set [4] is -3.05 ± 0.62. The tissue to tissue ratio at 1.5 h was found to be 4 in “µPET/CT imaging”, 23.1 in “Ex vivo biodistribution” (setting [14]), 0.9 in “Ex vivo biodistribution” (setting [16]) and 6.51 in the data set “Ex vivo biodistribution” (setting [18]). Moreover, the “% Stability in pH 7” value in [5] (30 min) is reported as 99.82 ± 0.05%; in data set [5] (60 min) it was 99.78 ± 0.12%; in data set [5] (120 min), 99.72 ± 0.22%. Also, in the data set with U-87 MG tumor SCID mouse [12], the “Tumor to blood ratio” value turned out to be 23.1. Further, the values for the tissue to tissue ratio at 0.5 h in the data set “Ex vivo biodistribution” (setting [13]), in the data set “Ex vivo biodistribution” (setting [15]) and in “Ex vivo biodistribution” (setting [17]) were 1.9, 0.36 and 3.23, respectively. For the same molecule, the “% Stability in 6 mM DTPA” value in data set [6] (30 min) is on record as 99.65 ± 0.07%; in data set [6] (60 min), 99.20 ± 0.37%; in [6] (120 min), 99.23 ± 0.32%.

The values are drawn from PMC6651196, “Preclinical Evaluation of Radiolabeled Peptides for PET Imaging of Glioblastoma Multiforme” (Molecules, 2019).
